Where two headings read alike, the source gives them in different places.
Tests used:
[1] = Solubility testing of gemfibrozil in solvents/cosolvents at 12 mg/ml and 32 mg/ml; format: physicochemical; settings: tested at 12 and 32 mg/ml
Method: Two doses of gemfibrozil were considered for each solvent/cosolvent. A low dose gemfibrozil preparation: 60 mg gemfibrozil in 5 ml of solvent/cosolvent (12 mg/ml dose), and a high dose gemfibrozil preparation: 160 mg gemfibrozil in 5 mL of solvent/cosolvent (32 mg/ml dose). Table 5 below illustrates that the first six solvent/cosolvents achieved gemfibrozil solubilization at both the 12 mg/ml dose and the 32 mg/ml dose. The solvent/cosolvents included the sodium carbonate/bicarbonate buffer having a pH of 10.5, polyethylene glycol (PEG) 400, glyceryl monolinoleate, propylene glycol dicaprylate/dicaprate, propylene glycol, and glyceryl monooleate.
The citrate buffer having a pH of 4.5 with tocopheryl polyethylene glycol succinate (TPGS) achieved gemfibrozil solubilization only the 12 mg/ml dose. The remainder of the solvents/cosolvents were not able to solubilize gemfibrozil at either the low dose or the high dose concentration.

[2] = Solubility of gemfibrozil in PEG 400 over a concentration range; format: physicochemical; settings: standing upright at room temperature overnight
Method: A concentrated stock solution of gemfibrozil was prepared in PEG 400. Gemfibrozil was evaluated for its solubility in PEG 400 over concentration range to determine an upper concentration that could be used to prepare a stock solution of gemfibrozil in liquid form. On the day of preparation gemfibrozil was dissolved in the PEG 400 at the indicated concentration. All samples were clear upon mixing. Following mixing, samples were stored standing upright at room temperature overnight.

[3] = cited from earlier work

Cc1ccc(C)c(OCCCC(C)(C)C(=O)O)c1 [Gemfibrozil, 5-(2,5-dimethylphenoxy)-2,2-dimethyl-pentanoic acid]
Gemfibrozil Solubility ([1]; Glycerol and Polysorbate 80): Not soluble
Gemfibrozil Solubility ([1]; Glyceryl monolinoleate): Soluble at 12 mg/ml and 32 mg/ml
Gemfibrozil Solubility ([1]; Glyceryl monooleate): Soluble at 12 mg/ml and 32 mg/ml
Gemfibrozil Solubility ([1]; Polyethylene glycol 400): Soluble at 12 mg/ml and 32 mg/ml
Gemfibrozil Solubility ([1]; Propylene glycol dicaprylate/dicaprate): Soluble at 12 mg/ml and 32 mg/ml
Gemfibrozil Solubility ([1]; Propylene glycol): Soluble at 12 mg/ml and 32 mg/ml
Gemfibrozil Solubility ([1]; Soybean oil): Not soluble
Gemfibrozil Solubility ([1]; pH 4.5 Citrate buffer and Poloxamer P188): Not soluble
Gemfibrozil Solubility ([1]; pH 4.5 Citrate buffer and Solutol HS15): Not soluble
Gemfibrozil Solubility ([1]; pH 4.5 citrate buffer and TPGS): Soluble at 12 mg/ml
Gemfibrozil Solubility ([1]; pH 10.5 Sodium carbonate/bicarbonate buffer): Soluble at 12 mg/ml and 32 mg/ml
solubility limit of gemfibrozil in PEG 400 [2]: 21.3 % w/w
solubility of gemfibrozil ([3]; in DMSO): ~16 mg/mL
solubility of gemfibrozil ([3]; in ethanol): approximately 30 mg/ml
solubility of gemfibrozil ([3]; in water): approximately 0.03 mg/ml

Reference: patent publication US20260027048A1, “GEMFIBROZIL FORMULATION” (POLARYX THERAPEUTICS, INC., priority 2022, published 2026)
